# Measurements: PMC2289263 (The Journal of Cell Biology, 1992)
# What was measured:
# [1] = tested on: B16-F10, A549, rabbit smooth muscle and bovine aortic endothelial cells; experiment: Cell adhesion assay, summary over the four cell types of Table II; type: cell-based; details: for Cell attachment compared to TSP, range over four cell types: text summary of Table II
# [2] = tested on: B16-F10 mouse melanoma cells in C57BL/6 mouse; experiment: Tumor cell metastasis assay; type: in vivo; details: compared with buffer control
# [3] = Heparin binding activity; details: data not shown
# [4] = tested on: human platelets; experiment: ADP-induced platelet aggregation in platelet-rich plasma; type: cell-based; details: ADP for 5 min, 500 ug/ml peptide; buffer control more than 1,000 per clump
# [5] = Oxidative stability of peptide in solution; type: physicochemical
substance,measurement,setting,value
ANKHYF [reference compound],Cell adhesive activity (in words),[1],little or no significant cell adhesive activity
same,Effect on lung tumor colony formation (in words),[2],no significant effect
CRVTCG,Heparin binding activity,[3],possessed heparin binding activity
CSTSCR,"Cell attachment compared to TSP, range over four cell types",[1],39-104%
CSVTCG,Heparin binding activity,[3],did not
same,"Cell attachment compared to TSP, range over four cell types",[1],29-49%
same,Platelets per clump,[4],10-50 platelets per clump
same,Oxidation in solution (in words),"[5]; multimers with apparent molecular weights of 2,000 on SDS-gels",slowly oxidized in solution
same,Time for which freshly prepared solutions were stable,"[5]; peptide in solution, oxidation of cysteine thiols",at least 2 h
CSVTCR,"Cell attachment compared to TSP, range over four cell types",[1],90-159%
Cyclic CSVTCG (disulfide),Cell adhesive activity (in words),[1],approximately to the same extent as CSVTCG
TCVCGS [reference compound],Cell adhesive activity (in words),[1],little or no significant cell adhesive activity
same,Effect on lung tumor colony formation (in words),[2],no significant effect
"TSP: 450,000-dalton glycoprotein secreted by platelets, purified from activated platelets",Number of adherent cells representing 100% adhesion,[1]; TSP-coated microtiter wells,500 adherent cells per min'
VCTGSC [reference compound],Cell adhesive activity (in words),[1],little or no significant cell adhesive activity
